Data as given in BindingDB's records for doi:10.1016/j.bmcl.2009.03.008 (Roche R & D Center(China), 2009).

Target: T1, Bile acid receptor (Homo sapiens, UniProt Q96RI1)
T1 sequence (Q96RI1 whole entry): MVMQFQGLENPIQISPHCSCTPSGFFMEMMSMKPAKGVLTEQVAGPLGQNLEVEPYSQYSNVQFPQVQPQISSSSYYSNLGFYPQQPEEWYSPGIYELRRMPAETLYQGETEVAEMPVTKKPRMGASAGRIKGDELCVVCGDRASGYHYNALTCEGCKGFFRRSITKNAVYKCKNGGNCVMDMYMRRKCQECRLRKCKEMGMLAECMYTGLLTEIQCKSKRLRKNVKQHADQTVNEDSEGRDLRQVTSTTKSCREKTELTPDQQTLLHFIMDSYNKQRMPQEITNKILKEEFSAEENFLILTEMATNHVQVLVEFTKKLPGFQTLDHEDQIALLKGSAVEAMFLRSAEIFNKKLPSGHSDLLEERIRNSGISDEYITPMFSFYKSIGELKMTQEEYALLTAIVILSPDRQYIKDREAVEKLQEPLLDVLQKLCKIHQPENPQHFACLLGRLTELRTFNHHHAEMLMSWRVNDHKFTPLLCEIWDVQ
Experiment: Scintillation Proximity Assay
Conditions: pH 8; 22 °C
Protocol: Binding affinity (IC50) was evaluated using scintillation proximity assay with radiolabeled ligand and biotinylated receptor. Because the scintillant is contained within the SPA bead, only radiolabel that is attached to the bead is detected. The receptor-ligand complex is bound to the bead through interaction between the biotinylated receptor and the streptavidin moiety located on the surface of the bead.

SMILES	IC50 [µM]	EC50 [µM]
Cc1cc(OCc2c(-c3c(Cl)ccc(=O)n3C)noc2C(C)Cl)ccc1-c1ccc2c(C(=O)O)cn(C)c2c1 (centres undefined) [3-aryl isoxazole analog, 7f]	0.88	
Cc1cc(OCc2c(-c3c(Cl)c[n+]([O-])cc3Cl)noc2C(C)Cl)ccc1-c1ccc2c(C(=O)O)cn(C)c2c1 (centres undefined) [3-aryl isoxazole analog, 7b]	0.045	
Cc1cc(OCc2c(-c3cc[nH]c(=O)c3Cl)noc2C(C)Cl)ccc1-c1ccc2c(C(=O)O)cn(C)c2c1 (centres undefined) [3-aryl isoxazole analog, 7c]	1.1	
COc1ccc(Cl)c(-c2noc(C(C)Cl)c2COc2ccc(-c3ccc4c(C(=O)O)cn(C)c4c3)c(C)c2)n1 (centres undefined) [3-aryl isoxazole analog, 7g]	0.75	2
Cc1cc(OCc2c(-c3c(Cl)cn(C)c(=O)c3Cl)noc2C(C)Cl)ccc1-c1ccc2c(C(=O)O)cn(C)c2c1 (centres undefined) [3-aryl isoxazole analog, 7e]	4.17	
Cc1cc(OCc2c(-c3[nH]c(=O)ccc3Cl)noc2C(C)Cl)ccc1-c1ccc2c(C(=O)O)cn(C)c2c1 (centres undefined) [3-aryl isoxazole analog, 7h]	5.16	
Cc1cc(OCc2c(-c3ccn(C)c(=O)c3Cl)noc2C(C)Cl)ccc1-c1ccc2c(C(=O)O)cn(C)c2c1 (centres undefined) [3-aryl isoxazole analog, 7d]	7.33	7
